One may read the LD50 as the dose at which mortality reaches 50%.

For one data set, the target named is Mushroom tyrosinase (Agaricus bisporus, UniProt C7FF04). As to the kind of experiment: Enzyme kinetics with tyrosinase (substrate disappearance by HPLC, Lineweaver-Burk). Type of data set: biochemical. The note with it: result in words. The protocol: (§1) Mushroom tyrosinase (400 units/mg) and plasma MAO (1000 units/gm) were obtained from Sigma Chemical Co. (St. Louis, MO, USA). A reaction mixture consisted of a substrate of 7 to 8 different concentrations (40 to 500 »M for mushroom tyrosinase and 20 to 200 »M for MAO) and of either mushroom tyrosinase (2.5 »g) or MAO (10 »g) in 1.0 mL of 0.05 M sodium phosphate buffer, pH 6.8 and 7.4 respectively. The reactions were carried out at 37°C in a shaking water bath, and stopped by taking 100 »L of the reaction mixture and adding it to 900 »L of 0.4 M HCLO₄. The disappearance of substrate was followed using HPLC (high pressure liquid chromatography) Km and Vmax values were calculated from the Lineweaver-Burk plots.
Sequence of Mushroom tyrosinase (C7FF04 1-392): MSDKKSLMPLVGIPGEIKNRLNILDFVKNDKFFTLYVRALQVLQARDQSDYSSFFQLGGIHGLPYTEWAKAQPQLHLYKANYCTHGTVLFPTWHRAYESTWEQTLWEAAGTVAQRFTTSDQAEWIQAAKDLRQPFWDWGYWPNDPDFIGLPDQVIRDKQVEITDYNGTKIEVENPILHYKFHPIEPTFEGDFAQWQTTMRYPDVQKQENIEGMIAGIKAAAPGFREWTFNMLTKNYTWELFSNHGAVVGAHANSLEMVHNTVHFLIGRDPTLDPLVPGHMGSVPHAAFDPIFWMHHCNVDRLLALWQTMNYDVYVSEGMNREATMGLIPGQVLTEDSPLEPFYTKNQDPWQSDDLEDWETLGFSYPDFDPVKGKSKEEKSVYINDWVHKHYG

Another data set deals with T1, plasma MAO (Bos taurus, UniProt Q29437).
T1 construct: purchased Sigma Chemical Co. (St. Louis, MO, USA)
T1 sequence (Q29437 17-762): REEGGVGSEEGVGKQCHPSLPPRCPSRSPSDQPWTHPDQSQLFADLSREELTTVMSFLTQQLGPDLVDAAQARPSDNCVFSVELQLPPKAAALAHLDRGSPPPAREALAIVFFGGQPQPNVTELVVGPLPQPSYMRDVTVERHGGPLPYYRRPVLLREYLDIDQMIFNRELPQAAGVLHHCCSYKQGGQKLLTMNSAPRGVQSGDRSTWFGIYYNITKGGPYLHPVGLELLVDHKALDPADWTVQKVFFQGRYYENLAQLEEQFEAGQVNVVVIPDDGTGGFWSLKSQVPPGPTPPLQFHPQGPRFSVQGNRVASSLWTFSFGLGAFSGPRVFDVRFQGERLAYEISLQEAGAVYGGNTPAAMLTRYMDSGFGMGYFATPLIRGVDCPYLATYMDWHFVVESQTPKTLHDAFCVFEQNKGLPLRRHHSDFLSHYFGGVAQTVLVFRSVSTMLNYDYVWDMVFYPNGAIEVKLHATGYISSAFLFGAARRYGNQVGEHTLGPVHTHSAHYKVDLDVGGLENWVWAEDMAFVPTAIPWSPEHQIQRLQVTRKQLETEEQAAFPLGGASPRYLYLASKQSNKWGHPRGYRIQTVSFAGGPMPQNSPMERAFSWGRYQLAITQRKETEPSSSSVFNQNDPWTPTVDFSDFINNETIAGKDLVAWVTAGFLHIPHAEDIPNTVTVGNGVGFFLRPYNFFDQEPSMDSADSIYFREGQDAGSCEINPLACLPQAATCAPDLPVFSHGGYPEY
As to the kind of experiment: Enzyme kinetics with monoamineoxidase (substrate disappearance by HPLC, Lineweaver-Burk). Format: biochemical. As to conditions: result in words. As for the experimental part:
as §1

The nature of data set [1]: Acute toxicity / lethal dose and maximum tolerable dose. The protocol: 3:1-85 1972. In accordance with this Protocol, ten to fifteen mice were used in each test group. They were weighed and randomized at day one after s.c. inoculation of B16 melanoma cells. From day five, the phenolic melanin precursors were administered i.p. daily for nine days. The test compounds were dissolved in normal saline, and sterilized by heating to 100°C for 2 minutes. […] They were administered i.p. with the following doses: 400 mg/Kg - 4-S-CAP; 200 to 300 mg/Kg - 4-S-CAP; and 200 to 1200 mg/Kg - N-Ac-4-S-CAP. A catalytic amount of L-dopa, 25 mg/Kg and antidecarboxylase, carbidopa, 400 mg/Kg, were also administered. Carbidopa was given one hour prior to L-dopa administration. DTIC (NSC 4538) was used as a control drug at a dose of 60 mg/Kg. Acute toxicity of 4-S-CP and 4-S-CAP was evaluated from 100 to 1600 mg/Kg.
The B16 mouse melanoma was maintained by s.c. inoculation of tumour cells into the back of C57BL7J mice (5 to 6 weeks, female). […] Briefly, excised tumours were homogenized in normal saline. The homogenized tumour cells were then passed through a sterile 80 mesh stainless steel screen, washed with normal saline, centrifuged (500 g. for 10 minutes) and resuspended in normal saline. Suspensions of viable melanoma cells at the concentration of 1 x 10⁶ per 0.1 ml were inoculated s.c. into both the right and left inguinal areas of C57BL/6J mice (female, 5 to 6 weeks old, 18 to 20 gm).

The test system of another data set is B16F10 melanoma. As to the kind of experiment: Melanoma-colony formation in the lungs. Format: in vivo, mice. The note with it: 900 mg/kg i.p. daily for 14 days from day five; lungs excised day 26. As for the experimental part: Murine B16F10 melanoma cell line with a strong metastatic property to form tumour colonies in the lungs was obtained from Dr. Longenecker, Department of Immunology, University of Alberta. Such cell line is well recognized and readily available as reported in Miura et al, supra. The cells were grown in T-75 flasks in dulbecco's MEM available from Gipco Lab Inc., Grand Island, New York, supplemented with 10% fetal calf serum, also obtained from Gipco, penicillin (100 »/ml) and streptomycin (100 »g/ml). The cells were incubated at 37°C in humidified atmosphere of 5% CO₂ in air. The cells were harvested by applying a thin layer of 0.25% trypsin solution in EDTA, washed and resuspended in cold N saline solution. Viable cells were identified by trypan blue dye exclusion and counted. The cell suspension was diluted to the desired concentration. Three groups of mice were studied using a control 4-S-CAP and N-Ac-4-S-CAP as the active agents in the treatment. On day zero, the mice were inoculated via the lateral tail vein with 5 x 10⁴ cells in 0.2 ml of N saline. The test drugs were dissolved in normal saline, sterilized by membrane filtration, and administered in a dose of 300 mg/Kg (4-S-CAP) or 900 mg/Kg (N-Ac-4-S-CAP); starting on day five, the control solution or drug was injected i.p. daily for 14 days. On day 26, the mice were killed by cervical dislocation, their lungs were removed, and the number of melanoma colonies was counted under a dissecting microscope. The results were expressed as percentage reduction in the number of colonies: [a - b/a] x 100, where a = colonies in control group and b = colonies in experimental group.

A further data set concerns melanocytes. As to the kind of experiment: Light and electron microscopy of melanocytes in regrowing hair follicles. Type of data set: in vivo, mice. The protocol:
In six groups of 4 mice (1 control and 1 for each compound) were treated daily with the control or compound injected i.p. The compounds tested were 4-S-CAP, N-Ac-4-S-CAP and α-Me-4-S-CAP. Samples of skin and regrowing hair follicles were excised under brief general anaesthesia on day 10 (late anagen phase), fixed in Karnovsky's solution (2.5% glutaraldehyde and 2.5% paraformaldehyde in 0l1 M cacodylate buffer), and refixed in 1% osmium tetroxide in cadodylate buffer. Tissues were stained en bloc with 1.5% uranyl acetate in o.1 M veronal buffer for 30min, dehydrated in graded ethanol solutions, embedded in epoxy resin, and sectioned with a Potter-Blum ultramicrotome MT II. Sections 1.0 »m thick were stained with methylene blue for light microscopy, thin sections were stained with led citrate for electron microscopy.

Where “and” joins values, the source holds several entries; their conditions need not be identical. Equal values may be shown once.

As for `CC(=O)NCCSc1ccc(O)cc1` [N-Ac-4-S-CAP, N-ACETYL-4-S-CYSTEAMINYLPHENOL], the tyrosinase substrate entry on Mushroom tyrosinase is “is also a tyrosinase substrate”. The “substrate for plasma MAO” value on plasma MAO is “not, however, a substrate for plasma MAO”. In addition, in data set [1] (acute toxicity, mice), the lethal dose was 1400 mg/kg. Besides, in data set [1] (experimental tests on animals, single dose), the “per single dose toxicity levels” value is listed as ~1,400 mg/kg of body weight. Moreover, in data set [1] (mouse, in vivo, ip), the LD50 amounted to 1400 mg/kg. Further, in the data set with B16F10 melanoma, the “No. of Colonies % control” value was 25% and 24.9%; the “No. of Colonies per pair of lungs” value was 21.5 ± 10.8. Also, the “light microscopy of hair follicles: functioning melanocytes and melanin pigments” value in the data set on melanocytes (i.p. daily, day 10 (late anagen phase)) is “neither functioning melanocytes nor melanin pigments remained in the follicles”. For the same molecule, the “electron microscopy of hair follicles: melanocytes and melanosomes” value in the data set on melanocytes (i.p. injection for 10 days) is “no melanocytes or melanosomes were visible”.
